Data set [1] addresses T1, DHODH (Homo sapiens, UniProt Q02127). To be noted: cited from earlier work; for Km: substrate/cosubstrate.
Target sequence in this assay (Q02127 whole entry): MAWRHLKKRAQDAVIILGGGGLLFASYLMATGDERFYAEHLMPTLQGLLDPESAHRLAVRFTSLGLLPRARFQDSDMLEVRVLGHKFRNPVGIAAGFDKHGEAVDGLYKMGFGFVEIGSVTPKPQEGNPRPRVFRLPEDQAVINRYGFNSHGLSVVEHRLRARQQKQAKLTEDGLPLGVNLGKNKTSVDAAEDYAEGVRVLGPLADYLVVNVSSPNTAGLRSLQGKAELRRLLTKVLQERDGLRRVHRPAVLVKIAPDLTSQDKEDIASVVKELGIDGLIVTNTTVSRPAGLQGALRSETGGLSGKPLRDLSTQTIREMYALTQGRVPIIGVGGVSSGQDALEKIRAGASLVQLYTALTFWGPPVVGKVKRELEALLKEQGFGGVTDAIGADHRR
The target in data set [2] is T1, DHODH. The following applies: cited from earlier work.
Target sequence in this assay (Q02127 whole entry, species assumed): as the sequence (Q02127 whole entry) above
The conditions of data set [3]: daily dosage of 2-3 g MMF, adult transplant recipients; cited from earlier work.
In data set [4] the test system is Jurkat T cells. Nature of the data set: Proliferation (3H-Tdr incorporation) of untransfected or mock-transfected Jurkat T cells. Type of data set: cell-based, human. The procedure:
(§1) Jurkat T cells (Human CD4+ T cell line from American Type Culture Collection, ATCC Number: TIB-152) were passaged in T cell culture media containing 0, 100, 125, 150, 175, and 200 μg/ml hygromycin. Unless otherwise stated, T cell culture media was prepared by addition of 13.7 ml HEPES (Irvine Scientific catalog No. 9319), 5 ml L-Glutamine (BioWhittaker Catalog No. 17-605C) and 57 ml heat inactivated fetal calf serum (Hyclone catalog No. SH30070.03) to 500 ml RPMI 1640 medium without Phenol Red pH indicator (Irvine Scientific catalog No. 9160).
To assess proliferation by ^3H-Tdr incorporation, a volume of cell suspension containing 5×10^6 cells was diluted to 10 ml and incubated at 37° C. and 5% CO2. On days 8, 10, 12, and 15, volumes of cell suspension yielding 0.6×10^6 cells were placed in 15 ml conical tubes and centrifuged at 1100 rpm for 8 minutes at room temperature. Supernatant was removed and cells were resuspended in […] T cell media. Aliquots of 0.1 ml each were dispensed into wells of a 96 well round bottom plate. Six wells were used for each clone. ^3H-Tdr (ICN catalog No. 24041) was diluted 1:20 with T cell media. Each well was pulsed by adding 50 μl/well (lpCi ^3H-Tdr/well) dilute ^3H-Tdr and incubating for 4 hours. Wells were harvested onto filter paper using a PhD Cell Harvester and CPM were counted in a liquid scintillation counter by standard scintillation procedures.
(§2) The amount of cell proliferation and viability were measured by the methods described in Example 1 at 72, 96, and 144 hours thereafter. OKT3/rhlL-2-activated PBMCs from healthy donors were passaged under the above conditions, and the amount of cell proliferation measured at the same time intervals.
Jurkat T cells (ATCC Number: TIB-152) were grown in T cell culture media in log phase and then subjected to electroporation by the method described in Example 1 in the presence of plasmid DNA vector IMPDH(T333I/S351Y)/pMG as described above. As a control (“mock”), Jurkat T cells were mock-transfected by electroporation with plasmid-free buffer.
As a control, mock-transfected Jurkat T cells were passaged under the same conditions.
As a control, mock-transfected Jurkat T cells were cultured under the same conditions.

In data set [5] the test system is Jurkat T cells. Put plainly: Viability (Trypan Blue) of untransfected or mock-transfected Jurkat T cells. The class given is cell-based, human. How it is done:
as §1
The viability of Jurkat T cells and PBMCs was determined using the Trypan Blue method for counting and calculating the number of live cells. […] Viable cells (unstained cells) and dead cells (blue stained cells) were counted in two diagonally opposite large corner squares of the hemacytometer and the total number of viable cells in the suspension and percentage of viable cells in the population were calculated. The total number of viable cells in the suspension was calculated by multiplying the mean number of cells counted per square by the dilution factor multiplied by 10^4. The percentage of viable cells in the population was calculated by dividing the total number of viable cells per ml by the total number of cells per ml multiplied by 100. […]

The test system of data set [6] is OKT3/rhIL-2-activated PBMCs. Nature of the data set: Proliferation (3H-Tdr incorporation) of OKT3/rhIL-2-activated PBMCs. Type of data set: cell-based, human. To be noted: MPA 1×10^−7M to 1×10^−4M, 72, 96, 144 hours. The procedure: (§3) Five hundred million freshly isolated, healthy donor peripheral blood mononuclear cells (PBMCs) were diluted to a volume of 500 ml with T cell culture media. PBMCs were activated with 15 λ anti-CD3 monoclonal antibody Orthoclone OKT3 (Ortho Biotech Inc.). Ten 50 ml aliquots of PBMC/OKT3 were placed in separate flasks. To each PBMC/OKT3 flask, 50 μL of stock 50 U/μl recombinant human IL-2 (Chiron catalog No. 53905-991-01) was added to stimulate proliferation. OKT3/rhIL-2-activated PBMCs were passaged under the same conditions as described for the Jurkat T cells. The amount of Jurkat T cell and PBMC proliferation was determined by measuring DNA incorporation of ^3H-Tdr 8, 10, 12, and 15 days thereafter.
To assess proliferation by ^3H-Tdr incorporation, a volume of cell suspension containing 5×10^6 cells was diluted to 10 ml and incubated at 37° C. and 5% CO2. […] Wells were harvested onto filter paper using a PhD Cell Harvester and CPM were counted in a liquid scintillation counter by standard scintillation procedures.
as §2

In data set [7] the test system is OKT3/rhIL-2-activated PBMCs. Nature of the data set: Viability (Trypan Blue) of OKT3/rhIL-2-activated PBMCs. The following applies: MPA 1×10^−7M to 1×10^−4M, 72, 96, 144 hours. The class given is cell-based, human. The procedure: as §3
The viability of Jurkat T cells and PBMCs was determined using the Trypan Blue method for counting and calculating the number of live cells. […] Viable cells (unstained cells) and dead cells (blue stained cells) were counted in two diagonally opposite large corner squares of the hemacytometer and the total number of viable cells in the suspension and percentage of viable cells in the population were calculated. The total number of viable cells in the suspension was calculated by multiplying the mean number of cells counted per square by the dilution factor multiplied by 10^4. […]

Data set [8] has as its system Jurkat T cells transfected with plasmid IMPDH(T333I/S351Y)/pMG. Nature of the data set: Proliferation (3H-Tdr incorporation) of Jurkat T cells transfected with IMPDH(T333I/S351Y)/pMG. The class given is cell-based, human.
The test system is the same in data set [9]. Nature of the data set: Viability (Trypan Blue) of Jurkat T cells transfected with IMPDH(T333I/S351Y)/pMG. Type of data set: cell-based, human. To be noted: hygromycin-resistant transfectants.
The next data set concerns the target Bacillus subtilis IMPDH (Bacillus subtilis, UniProt P21879). The following applies: Farazi et al. 1997; cited from earlier work.
Another data set deals with Escherichia coli IMPDH (Escherichia coli, UniProt P0ADG7). The following applies: Farazi et al. 1997; cited from earlier work.
For data set [10], the target named is Tritrichomonas foetus IMPDH (Tritrichomonas foetus, UniProt P50097). To be noted: Farazi et al. 1997; cited from earlier work.
The target of data set [11] is T2, IMPDH type II (Homo sapiens, UniProt P12268). To be noted: cited from earlier work.
The next data set has as its target type I IMPDH (Homo sapiens, UniProt P20839). The following applies: cited from earlier work; for Ki: product inhibition.
In the next data set the target is type II IMPDH (Homo sapiens, UniProt P12268). The following applies: cited from earlier work; for Ki: product inhibition.
The target of another data set is IMPDH. To be noted: competition for NAD+ cofactor-binding site; Yamada et al. 1989; read-out: Ki against NAD; cited from earlier work.
The next data set addresses IMPDH type I (Homo sapiens, UniProt P20839). The following applies: uncompetitive inhibitor; read-out: Ki against type I; cited from earlier work.
Data set [12] has as its target T2, IMPDH type II. The following applies: uncompetitive inhibitor; read-out: Ki against type II; cited from earlier work.
Data set [13] concerns B cell and T cell proliferation. To be noted: cited from earlier work.
[14] abbreviates: human DHODH, read-out: Ki, uncompetitive with respect to dihydroorotate.
The mark [15] stands for this setting: Jurkat, MPA 1×10^−7M to 1×10^−4M, 72, 96, 144 hours.

Read-outs that look alike come from different tables or passages of the source.

Chain of type I IMPDH (P20839 whole entry): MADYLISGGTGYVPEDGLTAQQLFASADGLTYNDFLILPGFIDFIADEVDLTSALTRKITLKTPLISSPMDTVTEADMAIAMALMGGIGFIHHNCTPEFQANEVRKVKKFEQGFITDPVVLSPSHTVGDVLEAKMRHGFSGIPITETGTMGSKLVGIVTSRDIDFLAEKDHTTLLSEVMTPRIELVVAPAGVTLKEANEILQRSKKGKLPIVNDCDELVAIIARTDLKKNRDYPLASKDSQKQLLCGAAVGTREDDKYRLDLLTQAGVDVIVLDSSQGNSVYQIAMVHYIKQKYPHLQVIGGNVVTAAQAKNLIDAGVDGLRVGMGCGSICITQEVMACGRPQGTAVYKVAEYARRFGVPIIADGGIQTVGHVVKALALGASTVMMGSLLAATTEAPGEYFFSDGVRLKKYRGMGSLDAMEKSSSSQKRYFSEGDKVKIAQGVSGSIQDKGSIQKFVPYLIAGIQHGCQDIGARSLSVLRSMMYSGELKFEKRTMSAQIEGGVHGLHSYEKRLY
Chain of Tritrichomonas foetus IMPDH (P50097 whole entry): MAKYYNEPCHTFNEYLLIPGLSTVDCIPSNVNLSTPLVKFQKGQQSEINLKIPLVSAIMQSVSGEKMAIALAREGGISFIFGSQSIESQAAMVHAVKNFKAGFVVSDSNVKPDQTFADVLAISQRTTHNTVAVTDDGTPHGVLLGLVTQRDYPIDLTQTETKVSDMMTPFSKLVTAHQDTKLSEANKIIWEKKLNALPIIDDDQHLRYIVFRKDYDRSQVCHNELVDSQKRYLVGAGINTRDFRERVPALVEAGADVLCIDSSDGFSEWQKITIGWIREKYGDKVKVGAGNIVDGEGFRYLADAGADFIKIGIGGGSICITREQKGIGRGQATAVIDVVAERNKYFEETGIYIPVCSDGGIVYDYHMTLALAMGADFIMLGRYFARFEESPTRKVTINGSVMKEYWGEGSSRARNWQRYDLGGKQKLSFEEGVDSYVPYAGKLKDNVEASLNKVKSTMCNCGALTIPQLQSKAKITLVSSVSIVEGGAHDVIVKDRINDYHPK
Chain of Escherichia coli IMPDH (P0ADG7 whole entry): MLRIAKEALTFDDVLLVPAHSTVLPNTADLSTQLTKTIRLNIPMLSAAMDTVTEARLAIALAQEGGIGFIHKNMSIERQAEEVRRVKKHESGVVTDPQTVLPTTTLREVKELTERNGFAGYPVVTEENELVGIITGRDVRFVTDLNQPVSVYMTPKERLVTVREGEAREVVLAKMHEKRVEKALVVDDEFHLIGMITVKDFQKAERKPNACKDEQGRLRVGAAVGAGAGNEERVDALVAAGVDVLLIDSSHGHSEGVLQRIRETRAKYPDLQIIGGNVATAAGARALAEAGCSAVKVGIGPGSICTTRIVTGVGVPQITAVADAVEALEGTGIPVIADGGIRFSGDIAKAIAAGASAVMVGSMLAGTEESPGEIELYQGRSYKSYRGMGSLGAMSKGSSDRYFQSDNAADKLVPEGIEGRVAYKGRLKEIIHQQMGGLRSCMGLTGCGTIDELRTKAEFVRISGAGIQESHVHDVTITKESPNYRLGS
Chain of IMPDH type I (P20839 whole entry): as the sequence (P20839 whole entry) above
Chain of Bacillus subtilis IMPDH (P21879 whole entry): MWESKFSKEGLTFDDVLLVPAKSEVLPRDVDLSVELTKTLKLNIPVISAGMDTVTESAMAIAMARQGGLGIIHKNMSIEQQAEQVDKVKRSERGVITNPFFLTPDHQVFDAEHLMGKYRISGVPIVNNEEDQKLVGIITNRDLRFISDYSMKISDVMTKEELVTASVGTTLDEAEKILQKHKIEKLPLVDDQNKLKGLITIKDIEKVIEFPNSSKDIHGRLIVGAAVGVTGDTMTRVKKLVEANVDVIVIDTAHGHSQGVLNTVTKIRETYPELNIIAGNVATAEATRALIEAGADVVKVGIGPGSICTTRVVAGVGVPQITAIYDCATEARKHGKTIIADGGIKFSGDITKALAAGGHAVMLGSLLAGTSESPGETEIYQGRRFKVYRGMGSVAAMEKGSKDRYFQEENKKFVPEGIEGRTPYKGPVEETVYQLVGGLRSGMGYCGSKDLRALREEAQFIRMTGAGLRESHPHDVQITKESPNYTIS

With `O=C1C(O)=C([C@H]2CC[C@H](c3ccc(Cl)cc3)CC2)C(=O)c2ccccc21` [Atovaquone], the Ki at DHODH [1] (setting [14]) was 11.5 µM.
On to `Cc1nc2c(n1-c1ccc(Br)cc1)C(=O)c1ccccc1C2=O` [BNID, 1-(p-bromophenyl)-2-methyl 1H-napth(2,3-d)-imidazole-4,9-dione], for which the Ki at DHODH [2] was 0.53 µM.
Consider `O=C1C(O)=C(CC=C(Cl)Cl)C(=O)c2ccccc21` [DCL, dichloroallyl lawsone], for which the Ki was 0.0098 µM at DHODH [1] (human DHODH, read-out: Ki, competitive with respect to ubiquinone) and 0.038 µM on DHODH [1] (setting [14]).
Take `COc1c(C)c2c(c(O)c1C/C=C(\C)CCC(=O)OCCN1CCOCC1)C(=O)OC2` [MMF, Mycophenolate mofetil]: the “therapeutically relevant blood trough levels” value in data set [3] is 1 to 5 µg/mL.
With `COc1c(C)c2c(c(O)c1C/C=C(\C)CCC(=O)O)C(=O)OC2` [MPA, Mycophenolic acid], the “proliferation vs. absence of MPA” value with Jurkat T cells [4] (setting [15]) was “significantly reduced”; in data set [6], “significantly reduced by MPA at all concentrations, except the lowest concentration”. Also, the “proliferation in presence of mycophenolic acid” value in the data set with Jurkat T cells [4] (control Jurkat, MPA 1×10^−6M to 2×10^−5M) is recorded as “essentially completely inhibited”. For the same compound, the “proliferation in medium containing mycophenolic acid” value in the data set on Jurkat T cells [4] (mock-transfected Jurkat, MPA 2×10^−7M to 2×10^−5M) is listed as “did not proliferate”. Also, in the data set on Jurkat T cells [4] (mock-transfected Jurkat, mycophenolic acid 2×10^−7 M and greater), the “3H-Tdr incorporation, % of media control” value is reported as “less than 3%”. Moreover, the “viability vs. absence of MPA” value with Jurkat T cells [5] (setting [15]) is listed as “significantly reduced”; in data set [7], “significantly reduced by MPA at all concentrations, except the lowest concentration”. The “viable cells in medium containing mycophenolic acid” value in the data set with Jurkat T cells [5] (mock-transfected Jurkat, by 36 days) is on record as “no viable cells were detected”. Besides, the “maximum 3H-Tdr incorporation maintained” value in [8] (five of the ten MPA-resistant clones, MPA 1×10^−6M or less) is “greater than 50%”. Also, the “proliferation, % of the maximum proliferation in the absence of MPA” value in [8] (hygromycin-resistant transfectants, 2×10^−6M to 2×10^−7M MPA) is 20-92%. For the same compound, in data set [8] (limiting dilution in 3×10^−6 M mycophenolic acid, 21 days after transfection, 10^4 cells per well), the “transfectant cells demonstrating proliferation” value is on record as “Approximately 10%”. For the same compound, the “viability at day 21 post-transfer compared to day 0” value in data set [9] (higher concentrations of mycophenolic acid) is “somewhat less viable”. Also, the “viability at day 21 post-transfer” value in data set [9] (lower concentrations of mycophenolic acid) is on record as “more viable at day 21 post-transfer than those cultured in medium containing higher concentrations of mycophenolic acid”. For the same compound, the Ki was 0.5 µM at Bacillus subtilis IMPDH, 20 µM at Escherichia coli IMPDH and 14 µM in [10]. For the same compound, on IMPDH type II [11], the “higher binding affinity for human IMPDH type II over human IMPDH type I” value is “approximately 5 fold”.
On to `NC(=O)C1=CN([C@@H]2O[C@H](COP(=O)(O)OP(=O)(O)OC[C@H]3O[C@@H](n4cnc5c(N)ncnc54)[C@H](O)[C@@H]3O)[C@@H](O)[C@H]2O)C=CC1` [NADH], for which the Ki at type I IMPDH is about 102 µM; at type II IMPDH, about 90 µM.
Take `NC(=O)c1ccc[n+]([C@@H]2O[C@H](COP(=O)([O-])OP(=O)(O)OC[C@H]3O[C@@H](n4cnc5c(N)ncnc54)[C@H](O)[C@@H]3O)[C@@H](O)[C@H]2O)c1` [NAD]: the figures for the Km at type I IMPDH (substrate/cofactor) and on type II IMPDH (substrate/cofactor) were about 46 µM and about 32 µM, respectively.
In the case of `CC(=O)N1CCc2c([nH]c3ccc(Br)cc23)C1c1ccccc1` (stereo not shown) [NSC 665564], on DHODH [2], the “IC50 compared with Brequinar” value was “comparable IC50 to Brequinar” and the “Ki compared with Brequinar” value was “lower Ki”.
As for `O=C(O)c1cc(=O)[nH]c(=O)[nH]1` [Orotate], the Ki is 22 ± 3 µM on DHODH [1] (competitive with respect to dihydroorotate, read-out: Kis (slope inhibition constant)) and 60 ± 10 µM on DHODH [1] (uncompetitive with respect to quinone, read-out: Kij (intercept inhibition constant)).
Consider `COc1cc(-c2ccc(Nc3ccccc3C(=O)O)c(OC)c2)ccc1Nc1ccccc1C(=O)O` [Redoxal], for which, on DHODH [1] (non-competitive for dihydroorotate and ubiquinone, read-out: apparent Ki), the Ki was 0.33 µM.
`NC(=O)c1csc(C2O[C@@H](COP(=O)(O)OP(=O)(O)OC[C@H]3OC(n4cnc5c(N)ncnc54)[C@H](O)[C@@H]3O)[C@H](O)[C@@H]2O)n1` (stereo partly shown) [TAD, thiazole-4-carboxamide adenine dinucleotide]: at IMPDH, the Ki is 0.075 µM.
Consider `COc1cc(NC(=O)Nc2cccc(CNC(=O)O[C@H]3CCOC3)c2)ccc1-c1cnco1` [VX-497], for which the results for the Ki at IMPDH type I and on IMPDH type II [12] were 0.007 µM and 0.01 µM, respectively. The concentration for half-maximal inhibition (IC50) in [13] is about 0.1 µM.
On to `CCCCCCCCCCC1=C(C)C(=O)C(OC)=C(OC)C1=O` [decylubiqunone], for which the Km at DHODH [1] (human DHODH) was about 13.7 µM.
On to `O=C1CC(C(=O)O)NC(=O)N1` (stereo not shown) [dihydroorotate], for which the Km on DHODH [1] (human DHODH) was about 9.4 µM.
Consider `COC1=C(OC)C(=O)C(C/C=C(\C)CC/C=C(\C)CC/C=C(\C)CC/C=C(\C)CC/C=C(\C)CC/C=C(\C)CC/C=C(\C)CC/C=C(\C)CC/C=C(\C)CCC=C(C)C)=C(C)C1=O` [ubiquinone], for which, at DHODH [1] (human DHODH), the Km is about 110 µM.
In the case of xanthine monophosphate [XMP], the Ki at type I IMPDH is about 80 µM; at type II IMPDH, about 94 µM.

One may read the Km as the concentration of substrate that gives half-maximal velocity. Broadly, the IC50 is the concentration that inhibits the measured activity by half.
